Experimental data as given in US10604739B2, “Cardiomyocyte production” (Cellular Dynamics International, Inc., priority 2009, dated 2020).
Values joined by “and” are separate entries in the source; they are usually repeats but may differ in a detail not shown here. Equal values may be shown once.

Tests used:
iPS6.1 cells = assay: iPS6.1 Four Corners experiment, FGF x HGF cardiac induction; assay type: cell-based, human
Protocol: (§1) Aggregate formation and cardiac induction procedures of those iPS cells at different initial densities were performed essentially the same as described in Examples 4 except different concentrations of human HGF (hHGF) and FGF were applied to Aggregate Formation Medium, Aggregate Transition Medium and Cardiac Induction Medium.
Concurrent with the second iPS growth factor titration, a simple experiment (Table 19) was set up with iPS6.1 cells to test the 2×2 matrix of 0 and 25 ng/mL FGF and 0 and 50 ng/mL HGF. The positive concentrations of FGF and HGF were chosen based on the current best practices for iPS6.1 cells at the time and were identical to the conditions used for cardiac induction of H1 cells in both the plated and suspension processes. This experiment confirmed previous work showing the necessity of FGF for the process.

H9-TGZ cells = assay: H9-TGZ Growth Factor Titration #2; assay type: cell-based, human; settings: HGF 0, 20, 50
Protocol: as §1
While the iPS6.1 optimization was underway, a separate series of experiments was conducted to optimize the growth factor concentrations for the H9-TGZ cells. […] Therefore, the FGF range tested was higher than that in the recent iPS6.1 experiments. This experiment confirmed that optimum cardiomyocyte production requires 100-150 ng/mL FGF with the H9-TGZ cells (FIGS. 31A-C).

Substance: HGF: human recombinant HGF (hepatic growth factor), R&D systems
- input iPS:CM (iPS6.1 cells; iPS6.1 cells, 25 ng/mL FGF and/or 50 ng/mL HGF, single T25 flask, day 14): 6725
- % cTNT+ (iPS6.1 cells; iPS6.1 cells, 25 ng/mL FGF and/or 50 ng/mL HGF, single T25 flask, day 14, listed as HGF only): 0% and 1.5% and 7%
- Overall culture efficiency (iPS6.1 cells; inclusion of HGF (50 ng/mL) together with FGF (25 ng/mL) versus FGF alone): reduced overall culture efficiency
- Trend in process efficiency across different HGF concentrations (H9-TGZ cells): No trend was observed in process efficiency
